Activity calls are given as the source filed them. The calls are words filed in the database; no cut-off is given here.
What was measured:
[1] = target: Adenosine 5'-monophosphoramidase HINT1 (Homo sapiens) (UniProt P49773); test: Inhibition of human N-terminal His6-tagged Hint1 expressed in Escherichia coli Rosetta 2 pLysS cells by fluorescence assay
Mus musculus [2] = test: Analgesic activity in ICR mouse model of spared nerve injury assessed as reduction in mechanical hypersensitivity at 1 nmol administered intrathecally prior to spared nerve injury by Von Frey test; assay type: functional, organism-based
Mus musculus [3] = test: Analgesic activity in ICR mouse model of spared nerve injury assessed as reduction in mechanical hypersensitivity at 1 nmol administered intrathecally 7 days post spared nerve injury by Von Frey test; assay type: functional, organism-based
Mus musculus [4] = test: Analgesic activity in ICR mouse model of spared nerve injury assessed as reduction in mechanical hypersensitivity at 1 nmol administered intrathecally 7 days post spared nerve injury measured after 4 hrs by Von Frey test; assay type: functional, organism-based

Adenosine 5'-monophosphoramidase HINT1 (Homo sapiens), sequence (P49773 whole entry): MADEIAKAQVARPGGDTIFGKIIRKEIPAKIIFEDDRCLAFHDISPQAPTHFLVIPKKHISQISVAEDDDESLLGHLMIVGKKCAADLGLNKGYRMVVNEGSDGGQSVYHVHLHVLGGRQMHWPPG

Row | inhibition [1] | Structure (SMILES) | Activity (Mus musculus [2]) | Activity (Mus musculus [3]) | Activity (Mus musculus [4])
1 | Dose-dependent effect | Nc1ncnc2c1ncn2[C@@H]1O[C@H](CNS(=O)(=O)NC(=O)CCCC[C@@H]2SC[C@@H]3NC(=O)N[C@@H]32)[C@@H](O)[C@H]1O |  |  | 
2 | Dose-dependent effect | Nc1nc2c(ncn2[C@@H]2O[C@H](COC(=O)NCCc3c[nH]c4ccccc34)[C@@H](O)[C@H]2O)c(=O)[nH]1 | Active | Active | 
3 |  | O=C(CCc1c[nH]c2ccccc12)NS(=O)(=O)OC[C@H]1O[C@@H](n2cnc3c2ncn2ccnc32)[C@@H](O)C1O (stereo partly specified) | inactive |  | Active

— ChEMBL document CHEMBL4476871, “SULFAMIDE AND SULFAMATE INHIBITORS OF hHint1” (2018)
